Data on 13 compounds can be found in patent US10336702B2, “Pharmaceutically active compounds” (BERGENBIO ASA, priority 2015, dated 2019).

Test [1] deals with T1, p-Akt2 in WM115 cells (Homo sapiens, UniProt P31751).
T1 construct: SureFire assays to detect cellular p-Akt1, p-Akt2 and p-Akt3 levels in WM115 cells (Akt2/3) and LNCaP cells (Akt1); endogenous in cells; host or cells: WM115 (ECACC 91061232), insulin-stimulated
The test can be described thus: Phospho-Akt cellular SureFire assay, p-Akt2 in WM115 cells. The format is cell-based. Conditions: insulin stimulated, read-out: Biological Assay 2 IC50 (nM) Akt2 WM115. The source says: (§1) Biological Assay 2: Phospho-Akt (p-Akt) Cellular SureFire Assays
(§2) The following describes SureFire assays to detect cellular p-Akt1, p-Akt2 and p-Akt3 levels in WM115 cells (Akt2/3) and LNCaP cells (Akt1). In the case of Akt2 and Akt3, Streptavidin-coated donor beads capture a biotinylated anti-mouse antibody that in turn recognises a mouse total Akt antibody which is specific to each isoform. The protein A-conjugated acceptor beads capture an antibody that recognises the phosphoprotein. Similarly in the Akt1 kit, the donor and acceptor beads are used to capture each antibody pair consisting of an antibody that specifically recognises Akt1 as well as an antibody that recognises the phosphoprotein. In each case, close proximity of the beads allows energy transfer from donor to acceptor.
(§3) Custom kit from TGR/Perkin Elmer for Akt2/3 containing anti-(pThr308)Akt antibody and biotinylated anti-mouse capture antibody.
Total Akt2 antibody (NEB UK, 5239)
(§4) WM115 cells (ECACC, 91061232) cultured in MEM culture media (M2279) supplemented with 2 mM L-glutamine (G7513), 1% non-essential amino acids (M7145), 1% sodium pyruvate (S8636) and 10% FBS (F0804)
(§5) Cell treatment: 1×10^5 WM115 cells or 5×10^4 LNCaP cells were seeded into each well of a 96 well poly-D-Lysine coated tissue culture plate and incubated overnight at 37° C.+5% CO2. Media was removed from cells and replaced with assay buffer consisting of the full culture media described above but with 0.1% FBS instead of 10% FBS. Only WM115 cells were stimulated at 37° C.+5% CO2 for 10 min with 5 μL insulin at a final concentration of 100 nM. Cells were incubated with 5 μL of test compound at a final DMSO concentration of 0.3% for 15 min at 37° C.+5% CO2. Cell lysis was carried out according to kit instructions.
(§6) Assay format (performed in subdued lighting): 4 μL cell lysate and 5 μL reaction buffer were incubated together in the dark at room temperature for 2 h. Reaction buffer was supplemented with a 1/5 dilution of activation buffer, a 1/50 dilution of acceptor beads and in the case of the custom kits, antibodies were added at dilutions of 1/20,000 for Akt2 and 1/2,000 for Akt3.
(§7) 2 μL dilution buffer, supplemented with a 1/20 dilution of donor beads was added to each well and incubated for a further 2 h. Plates were read with the EnVision® Multilabel Plate Reader and using the AlphaScreen settings. Compound IC50 was determined using a 4-parameter equation.

Test [2] deals with T2, p-Akt3 in WM115 cells (Homo sapiens, UniProt Q9Y243).
T2 construct: SureFire assays to detect cellular p-Akt1, p-Akt2 and p-Akt3 levels in WM115 cells (Akt2/3) and LNCaP cells (Akt1); endogenous in cells; host or cells: WM115 (ECACC 91061232), insulin-stimulated
T2 sequence (Q9Y243 whole entry): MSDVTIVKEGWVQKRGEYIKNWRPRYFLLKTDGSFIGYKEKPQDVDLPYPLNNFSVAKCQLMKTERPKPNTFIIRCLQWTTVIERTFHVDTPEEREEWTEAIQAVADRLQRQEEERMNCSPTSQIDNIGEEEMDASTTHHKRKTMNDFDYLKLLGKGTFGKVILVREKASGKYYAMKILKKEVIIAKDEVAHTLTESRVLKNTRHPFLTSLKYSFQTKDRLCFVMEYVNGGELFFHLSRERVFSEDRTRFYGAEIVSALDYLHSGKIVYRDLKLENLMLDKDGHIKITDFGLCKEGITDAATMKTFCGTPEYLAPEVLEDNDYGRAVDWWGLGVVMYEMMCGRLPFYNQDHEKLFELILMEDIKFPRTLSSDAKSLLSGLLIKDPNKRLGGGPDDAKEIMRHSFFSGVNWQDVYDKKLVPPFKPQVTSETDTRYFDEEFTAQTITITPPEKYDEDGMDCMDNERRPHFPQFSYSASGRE
In words: Phospho-Akt cellular SureFire assay, p-Akt3 in WM115 cells. It counts as cell-based. Conditions: insulin stimulated, read-out: Biological Assay 2 IC50 (nM) Akt3 WM115.
Source text: as §1, §2, §3
Total Akt3 antibody (R&D Systems MAB 1463)
as §4, §5, §6, §7

The target in test [3] is T3, Akt2 (Homo sapiens, UniProt P31751).
T3 construct: unspecified tag, removed (detagged) (cleaved yes); purchased SignalChem and Proteros (Akt2); Merck Millipore (PDK1) 14-452 (PDK1); none given for Akt2
T3 sequence (P31751 whole entry): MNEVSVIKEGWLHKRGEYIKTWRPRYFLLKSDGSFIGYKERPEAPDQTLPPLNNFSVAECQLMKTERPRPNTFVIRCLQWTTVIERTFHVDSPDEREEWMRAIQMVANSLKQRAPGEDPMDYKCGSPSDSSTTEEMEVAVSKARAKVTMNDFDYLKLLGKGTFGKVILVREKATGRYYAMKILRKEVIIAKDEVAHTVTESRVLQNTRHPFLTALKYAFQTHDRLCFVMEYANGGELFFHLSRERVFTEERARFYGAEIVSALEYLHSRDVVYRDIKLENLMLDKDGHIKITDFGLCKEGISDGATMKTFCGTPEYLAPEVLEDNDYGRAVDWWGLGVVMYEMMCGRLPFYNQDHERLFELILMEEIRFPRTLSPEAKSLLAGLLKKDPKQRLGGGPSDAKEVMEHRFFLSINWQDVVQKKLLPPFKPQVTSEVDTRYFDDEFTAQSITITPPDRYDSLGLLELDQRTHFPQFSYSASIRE
In words: Akt activation assay (PDK1-mediated activation, LANCE Ultra crosstide TR-FRET), Akt2. The format is biochemical. Conditions: read-out: Biological Assay 1 IC50 (nM) Akt2. The gist of the method:
(§8)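 Two-step cascade format: Akt1, Akt2 or Akt3 phosphorylates Ulight-crosstide (100 nM) only after activation by 5 nM PDK1 in presence of PtdIns(3,4,5)P3 vesicles and 100 μM ATP. Product quantified by Eu-antibody TR-FRET after 30 min reaction.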
For orientation: Time-resolved FRET reads energy transfer from a long-lived donor to a nearby acceptor.

Test [4] addresses T4, Akt1 (Homo sapiens, UniProt P31749).
T4 construct: unspecified tag, removed (detagged) (cleaved yes); purchased SignalChem and Proteros (Akt1); Merck Millipore (PDK1) 14-452 (PDK1); none given for Akt1
The test can be described thus: Akt activation assay (PDK1-mediated activation, LANCE Ultra crosstide TR-FRET), Akt1. The format is biochemical. Particulars: read-out: Biological Assay 1 IC50 (nM) Akt1. The gist of the method:
as §8

The target of test [5] is T5, Akt3 (Homo sapiens, UniProt Q9Y243).
T5 construct: unspecified tag, removed (detagged) (cleaved yes); purchased SignalChem and Proteros (Akt3); Merck Millipore (PDK1) 14-452 (PDK1); none given for Akt3
T5 sequence (Q9Y243 whole entry): as the sequence (Q9Y243 whole entry) above
In words: Akt activation assay (PDK1-mediated activation, LANCE Ultra crosstide TR-FRET), Akt3. The format is biochemical. Particulars: read-out: Biological Assay 1 IC50 (nM) Akt3. The gist of the method: as §8

T4 sequence (P31749 whole entry): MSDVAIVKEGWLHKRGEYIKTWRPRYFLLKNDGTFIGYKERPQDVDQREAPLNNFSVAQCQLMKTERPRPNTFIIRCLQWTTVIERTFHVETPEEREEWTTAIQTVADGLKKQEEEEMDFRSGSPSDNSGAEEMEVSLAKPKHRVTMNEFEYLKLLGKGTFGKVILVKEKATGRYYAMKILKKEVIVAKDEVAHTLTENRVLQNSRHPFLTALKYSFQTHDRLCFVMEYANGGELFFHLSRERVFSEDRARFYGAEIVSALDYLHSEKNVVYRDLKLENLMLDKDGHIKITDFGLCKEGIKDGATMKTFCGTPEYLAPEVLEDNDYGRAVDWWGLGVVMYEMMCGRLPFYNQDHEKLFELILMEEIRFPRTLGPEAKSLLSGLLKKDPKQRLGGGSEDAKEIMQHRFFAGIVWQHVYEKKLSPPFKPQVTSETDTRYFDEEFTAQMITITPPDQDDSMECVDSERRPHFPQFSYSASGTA
T1 sequence (P31751 whole entry): as the sequence (P31751 whole entry) above

Take `CC(=O)N(C)[C@H]1CC[C@H](CC(=O)Nc2cc(-c3ccccc3)c(-c3ccc(C4(N)CCC4)cc3)nn2)CC1` [Example A56, N-(6-(4-(1-aminocyclobutyl)phenyl)-5-phenylpyridazin-3-yl)-2-(trans-4-(N-methylacetamido)cyclohexyl)acetamide]: the IC50 is 1300 nM in test [1]; 43 nM in test [2]; 270 nM in test [3]; 11000 nM in test [4]; 7 nM in test [5].
The like results for `CCC(=O)N(C)[C@H]1CC[C@H](CC(=O)Nc2cc(-c3ccccc3F)c(-c3ccc(C4(N)CCC4)cc3)cn2)CC1` [Example A102, N-(trans-4-(2-((5-(4-(1-aminocyclobutyl)phenyl)-4-(2-fluorophenyl)pyridin-2-yl)amino)-2-oxoethyl)cyclohexyl)-N-methylpropionamide] were, in that order, 2300 nM, 160 nM, 100 nM, above 19000 nM and 14 nM.
The like results for `CC(=O)N(C)[C@H]1CC[C@H](CC(=O)Nc2cnc(-c3ccc(C4(N)CC(F)(F)C4)cc3)c(-c3ccccc3)c2)CC1` [Example 5] were, in that order, 3000 nM, 61 nM, 800 nM, 3900 nM and 110 nM.
With `CCOC(=O)N(C)[C@H]1CC[C@H](CC(=O)Nc2cc(-c3ccsc3)c(-c3ccc([C@]4(N)C[C@](C)(O)C4)cc3)cn2)CC1` [Example A90, Ethyl (trans-4-(2-((5-(4-(trans-1-amino-3-hydroxy-3-methylcyclobutyl)phenyl)-4-(thiophen-3-yl)pyridin-2-yl)amino)-2-oxoethyl)cyclohexyl)(methyl)carbamate], the IC50 in test [1] came to 4700 nM; in test [2] it was 180 nM; in test [3] it was 300 nM; in test [4] it was 10000 nM; in test [5], 15 nM.
The like results for `CCC(=O)N(C)[C@H]1CC[C@H](CC(=O)Nc2cc(-c3ccccc3)c(-c3ccc([C@]4(N)C[C@](C)(O)C4)c(F)c3)cn2)CC1` [Example 112, N-(trans-4-(2-((5-(4-(trans-1-amino-3-hydroxy-3-methylcyclobutyl)-3-fluorophenyl)-4-phenylpyridin-2-yl)amino)-2-oxoethyl)cyclohexyl)-N-methylpropionamide] were, in that order, 3400 nM, 31 nM, 1300 nM, above 30000 nM and 55 nM.
The like results for `Cc1nncn1[C@H]1CC[C@H](CC(=O)Nc2cnc(-c3ccc(C4(N)CCC4)cc3)c(-c3ccccc3)c2)CC1` [Example A17, N-(6-(4-(1-aminocyclobutyl)phenyl)-5-phenylpyridin-3-yl)-2-(trans-4-(3-methyl-1,2,4-triazol-4-yl)cyclohexyl)acetamide] were, in that order, 12000 nM, 1000 nM, 420 nM, 1500 nM and 62 nM.
Consider `CN(C(=O)C(F)F)[C@H]1CC[C@H](CC(=O)Nc2cc(-c3ccccc3)c(-c3ccc([C@]4(N)C[C@](C)(O)C4)cc3)cn2)CC1` [Example 109, N-(trans-4-(2-((5-(4-(trans-1-amino-3-hydroxy-3-methylcyclobutyl)phenyl)-4-phenylpyridin-2-yl)amino)-2-oxoethyl)cyclohexyl)-2,2-difluoro-N-methylacetamide], for which the IC50 is 780 nM in test [1]; 13 nM in test [2]; 220 nM in test [3]; above 30000 nM in test [4]; 12 nM in test [5].
The like results for `CC(=O)N(C)[C@H]1CC[C@H](CC(=O)Nc2cc(-c3ccccc3)c(-c3ccc([C@]4(N)C[C@](C)(O)C4)c(F)c3)cn2)CC1` [Example 111, N-(5-(4-(trans-1-amino-3-hydroxy-3-methylcyclobutyl)-3-fluorophenyl)-4-phenylpyridin-2-yl)-2-(trans-4-(N-methylacetamido)cyclohexyl)acetamide] were, in that order, 3200 nM, 29 nM, 1400 nM, above 27000 nM and 68 nM.
The like results for `CC(=O)N(C)[C@H]1CC[C@H](CC(=O)Nc2cc(-c3ccccc3F)c(-c3ccc([C@]4(N)C[C@](C)(O)C4)cc3)cn2)CC1` [Example 94, N-(5-(4-(trans-1-amino-3-hydroxy-3-methylcyclobutyl)phenyl)-4-(2-fluorophenyl)pyridin-2-yl)-2-(trans-4-(N-methylacetamido)cyclohexyl)acetamide] were, in that order, 550 nM, 13 nM, 120 nM, 20000 nM and 11 nM.
The like results for `NC1(c2ccc(-c3ncc(NC(=O)C(F)C4CCN(S(=O)(=O)C5CC5)CC4)cc3-c3ccccc3)cc2)CCC1` (centres unmarked) [Example 40, N-(6-(4-(1-aminocyclobutyl)phenyl)-5-phenylpyridin-3-yl)-2-(1-(cyclopropylsulfonyl)piperidin-4-yl)-2-fluoroacetamide] were, in that order, 2900 nM, 220 nM, 440 nM, 9800 nM and 360 nM.
As to `CCN(C(=O)OC)[C@H]1CC[C@H](CC(=O)Nc2cc(-c3ccccc3)c(-c3ccc([C@]4(N)C[C@](C)(O)C4)cc3)cn2)CC1` [Example 116, Methyl (trans-4-(2-((5-(4-(trans-1-amino-3-hydroxy-3-methylcyclobutyl)phenyl)-4-phenylpyridin-2-yl)amino)-2-oxoethyl)cyclohexyl) (ethyl)carbamate], the IC50 is 1400 nM in test [1]; 72 nM in test [2]; 220 nM in test [3]; above 30000 nM in test [4]; 21 nM in test [5].
The like results for `CCC(=O)N(C)[C@H]1CC[C@H](CC(=O)Nc2cc(-c3ccccc3F)c(-c3ccc([C@]4(N)C[C@](C)(O)C4)cc3)cn2)CC1` [Example 95, N-(trans-4-(2-((5-(4-(trans-1-amino-3-hydroxy-3-methylcyclobutyl)phenyl)-4-(2-fluorophenyl)pyridin-2-yl)amino)-2-oxoethyl)cyclohexyl)-N-methylpropionamide] were, in that order, 660 nM, 17 nM, 120 nM, above 22000 nM and 10 nM.
For the compound `NC1(c2ccc(-c3ncc(NC(=O)C[C@H]4CC[C@H](N5CCOC5=O)CC4)cc3-c3ccccc3)cc2)CCC1` [Example A27, N-(6-(4-(1-aminocyclobutyl)phenyl)-5-phenylpyridin-3-yl)-2-(trans-4-(2-oxooxazolidin-3-yl)cyclohexyl)acetamide], the IC50 in test [1] worked out at 790 nM; in test [2], 51 nM; in test [3], 180 nM; in test [4], 4100 nM; in test [5], 19 nM.

As usually defined, the IC50 is the concentration that gives 50% inhibition.
